Assay results: patent publication US20190137482A1, “HIGH THROUGHPUT SCREENING OF AGENTS ON DOPAMINERGIC NEURONS” (Cell Cure Neurosciences Ltd., priority 2013, published 2019)

How the values were obtained:
[1] = tested on: hESC-derived dopaminergic neurons; assay: DansylD1 labeling and uptake in hESC-derived dopaminergic neurons; format: cell-based, human; conditions: for DansylD1 fluorescence level: hESC-derived dopaminergic neurons after 26 days of differentiation, agent present in the medium, FIGS. 6A-6D
Excerpt: In order to direct the differentiation of hESCs into DA neurons, the cells were first directed to become neural progenitors within free-floating spheres (2 weeks) in the presence of the dual SMAD inhibitors (LDN193189+SB431542), FGF8, Purmorphamine and CHIR. They were further directed to differentiate into DA progenitors (7 days) as adherent cultures on laminin/fibronectin in the presence of FGF8, Purmorphamine and CHIR. Finally, they were differentiated into mature DA neurons (7 days) in the presence of the following factors (BDNF, NT4, AA, db-cAMP, TGFbeta3, GDNF and DAPT). The relevant factors/mitogens were replaced every 2-3 days.
(§3) For Binding and uptake of the fluorescent ligand, 500-1000 nM of DansylD1™ (Five Photon Biochemicals™, Lot#81672) was administrated to the seeded cells after 2 weeks of differentiation on the coverslips or on 12/24 wells plastic plates for 10-15 minutes in 37° C. […] Uptake levels of the dansylD1 fluorescent ligand molecule were detected and analyzed by fluorescence microscope and a fluorescence micro-plate reader (Bioteck, 333/515 nm). Acquisition and analysis was performed using Magelan software and Microsoft Excel.
The neuronal culture was incubated in the presence of the D2 antagonist Sulpiride.

PC12 cells = assay: DansylD1 uptake calibration in PC-12 cells (fluorescence microscope); format: cell-based; conditions: 500 nM DansylD1, dopamine as competitive inhibitor, GBR as dopamine transporter blocker, FIGS. 3A-3D
Experimental: as §3

mature DA neurons = assay: TH expression in mature DA neurons after toxin exposure; format: cell-based, human
Experimental: For staining, cells on the coverslips were blocked in 5% normal goat/donkey serum (NGS) for 1 hour at room temperature. The anti TH antibody was diluted 1:100 or 1:1000 in 1% normal donkey/goat serum (NGS) and applied for 1 hour at room temperature. The antibodies that was employed were rabbit anti-human TH polyclonal antibody or mouse anti-human TH monoclonal antibody, Cat No. p40101, purchased from Pel-freez, or Cat No. T1299 purchased from Sigma and rabbit anti hu Nurr1 ab AB5778 (Millipore 10 ug/ml) or mouse igG anti NurrI (millipore, 1:200 or 1:1000), Rabbit Anti DAT AB5802 (Millipore, 1:500-1:1000). Following three washes in PBS, swine-anti rabbit FITC or goat anti mouse Cy-3-antibody diluted 1:50 or 1:500 in 1% normal goat serum (NGS) was applied for 1 hour at room temperature. Cells were washed in PBS, fixed with 4% PFA and mounted in the presence of the nuclear counterstain DAPI for immunofluoresecent microscopic examination.
(§1) An additional experiment compared the effect of 100 nM 6-OH dopamine with 200 nM 6-OH dopamine. As illustrated in FIGS. 10A-10B, after addition of 200 nM 6-OH-dopamine to mature DA neurons the fluorescence levels of dansylD1 was decreased (green) and also the percentage of cells expressing TH (DA neuron marker) declined to 1-2% (FIGS. 10C and D).

dopaminergic neurons = assay: DansylD1 fluorescence in dopaminergic neurons after toxin exposure; format: cell-based, human; conditions: for DansylD1 fluorescence levels by micro-plate reader: 2 week differentiated live mature DA neurons, different toxin concentrations, 1 day, DansylD1 added again, FIG. 11
Experimental: For Binding and uptake of the fluorescent ligand, 500-1000 nM of DansylD1™ (Five Photon Biochemicals™, Lot#81672) was administrated to the seeded cells after 2 weeks of differentiation on the coverslips or on 12/24 wells plastic plates for 10-15 minutes in 37° C. DansylD1 functions as the dopamine neurotransmitter in binding to the D2 dopamine receptor on Dopaminergic and GABAergic neurons and uptake through the dopamine transporter (DAT) by dopaminergic neurons. 50 nM of the D2 dopamine receptor antagonist—Sulpiride (sigma S112, Lot#108H4745) or 5 nM of the dopamine transporter (DAT) blocker—GBR (Sigma G9659, Lot#086K4104), were added for 10 minutes to the seeded cells in order to reduce the binding to non-dopaminergic neurons or to block the specific DansylD1 uptake respectively. Uptake levels of the dansylD1 fluorescent ligand molecule were detected and analyzed by fluorescence microscope and a fluorescence micro-plate reader (Bioteck, 333/515 nm). Acquisition and analysis was performed using Magelan software and Microsoft Excel.
Dopaminergic neurons were fluorescently labeled with Dansyl D1. Increasing levels of 6-OH dopamine (50 nM and 100 nM) were added to the dopaminergic neurons and following 1 day of culture, the neurons were contacted again with Dansyl D1. The cells were rinsed and then the amount of fluorescence was analyzed.
as §1
(§2) Dansyl D1 was added to 2 week differentiated live mature DA neurons and the fluorescence levels quantified by fluorescence micro-plate reader. Later the cells were washed and different 6-OH-dopamine concentrations were added. After a day, dansylD1 was added again and the fluorescent levels measured once again.

DA neurons = assay: Protection of DA neurons from the toxin 6-OH dopamine; format: cell-based, human; conditions: cells over-expressing GDNF; FIG. 12
Experimental: as §2

[2] = 200 nM toxin, mature DA neurons

In the case of Cl.Cl.Fc1ccc(C(OCCN2CCN(CCCc3ccccc3)CC2)c2ccc(F)cc2)cc1 [GBR], the DansylD1 fluorescence level [1] is reported as “caused the fluorescence level to decline” and the “amount of DansylD1 fluorescence in the cells” value (PC12 cells) is reported as “decreased the amount of fluorescence”.

For CCN1CCCC1CNC(=O)c1cc(S(N)(=O)=O)ccc1OC (stereo not shown) [sulpiride], the “DansylD1 signal from the cells surface” value ([1]; neuronal culture incubated with the D2 antagonist, fluorescent vesicles appear, FIGS. 8A-8B) was “less signal from the cells surface”.

With NCCc1cc(O)c(O)cc1O [6-OH-dopamine] the TH positive cells (mature DA neurons; 100 nM toxin) was “only minor reduction”, the “percentage of cells expressing TH” value (mature DA neurons; [2]) was 1-2% and the “amount of Dansyl D1 fluorescence in dopaminergic cells” value (dopaminergic neurons; 50 nM and 100 nM toxin, 1 day of culture, relabeled with Dansyl D1, FIGS. 10A-10C) was “reduced”. The Dansyl-D1 uptake (dopaminergic neurons; 100 nM toxin) was “significant decrease”, the “fluorescence levels of dansylD1” value (dopaminergic neurons; [2]) was “decreased” and the “DansylD1 fluorescence levels by micro-plate reader” value (dopaminergic neurons) was “decreased by half”. The “DansylD1 fluorescence levels by micro-plate reader” value (dopaminergic neurons; listed as 6-OH dopamine) was “reduced in correlation with the amount of toxin”.

In the case of NCCc1ccc(O)c(O)c1 [dopamine], the DansylD1 fluorescence level [1] is reported as “caused the fluorescence level to decline” and the “amount of DansylD1 fluorescence in the cells” value (PC12 cells) is reported as “decreased the amount of fluorescence”.

B1: GDNF: neurotrophic factor over-expressed by cells that protected DA neurons from the toxin (protein, UniProt P39905 78-211, looked up)
Glial cell line-derived …: SPDKQMAVLPRRERNRQAAAANPENSRGKGRRGQRGKNRGCVLTAIHLNVTDLGLGYETKEELIFRYCSGSCDAAETTYDKILKNLSRNRRLVSDKVGQACCRPIAFDDDLSFLDDNLVYHILRKHSAKRCGCI
In the case of B1, the “protection of neurons from the toxin 6-OH dopamine” value (DA neurons) is reported as “protected”.
